Laboratory results reported in PMC4742142, “Identification of novel, in vivo active Chk1 inhibitors utilizing structure guided drug design” (Oncotarget, 2015).
“Also recorded” adds a separate entry of the source.

Experiments:
Chk1 = biological target: T1, Chk1 (Homo sapiens, UniProt O14757); test: Wide panel binding assay (386 kinases); settings: Chk1, 50 nM
T1 sequence (O14757 1-476): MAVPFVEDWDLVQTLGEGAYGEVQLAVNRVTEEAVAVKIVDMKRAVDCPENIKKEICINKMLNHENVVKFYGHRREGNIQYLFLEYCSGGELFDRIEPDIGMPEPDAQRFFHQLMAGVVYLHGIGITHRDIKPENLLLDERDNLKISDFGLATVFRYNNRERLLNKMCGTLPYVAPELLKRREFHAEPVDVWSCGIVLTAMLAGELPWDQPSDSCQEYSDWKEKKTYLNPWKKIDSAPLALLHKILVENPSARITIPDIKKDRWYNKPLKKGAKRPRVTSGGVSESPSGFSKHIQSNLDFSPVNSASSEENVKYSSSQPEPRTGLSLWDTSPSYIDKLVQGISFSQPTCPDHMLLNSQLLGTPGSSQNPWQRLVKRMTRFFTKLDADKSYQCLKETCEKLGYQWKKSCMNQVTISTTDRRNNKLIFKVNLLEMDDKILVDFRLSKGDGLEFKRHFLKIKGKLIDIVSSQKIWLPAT
Description: Selectivity against the cell cycle kinase CDK1 is considered critical for the pharmacological activity of Chk1 inhibitors as inhibiting it would prevent the G2 checkpoint abrogation and entry into mitosis; critical for the potentiation of cytotoxic DNA damage. Against a panel of 386 kinases in a wide panel binding assay, V158411 inhibited the activity of one kinase (Chk1) in the range 99-100%, three kinases 90-99% and 19 kinases 65-90% at 50 nM (Supplementary Table 1).

SW620 xenograft = SW620 xenograft antitumor efficacy
Excerpt: Xenograft studies were undertaken by Charles River Laboratories Discovery Services, North Carolina. On the day of tumor cell implant, Colo205 cells were harvested and resuspended in 50% Matrigel matrix (BD Biosciences) in PBS at a concentration of 5 × 10^6 cells/mL. Each test mouse received 1 × 10^6 Colo205 cells implanted subcutaneously (SC) in the flank of female athymic nude mice (HRLN or NCr nu/nu), and tumor growth was monitored as the average size approached 100-150 mm^3. The SW620 tumor line was maintained by serial SC transplantation in female athymic nude mice (HRLN nu/nu). Tumor fragments, approximately 1 mm^3 each, were implanted SC into the right flank of each animal and allowed to grow towards a target size of 100-150 mm^3. On day 1 of the study, tumors were randomized into treatment groups before compound administration.
V158411 was formulated in D5W and administered via IV injection into the tail vein. Cyclic treatment regimens were followed and treatment ranged from 2-3 cycles.
Tumor size was measured with electronic calipers and tumor volume calculated according to the formula ((width × width) × length) /2.
The study endpoint was defined as a tumor volume of 750 mm^3 for Colo205 or 1500 mm^3 for SW620, or day 60, whichever came first. Each animal was euthanized when its' tumor reached this endpoint. The time to endpoint (TTE) for each mouse was calculated from the equation TTE = (log10(endpoint volume)-b)/m where b is the intercept and m the slope of the line obtained by linear regression of a log-transformed tumor growth data set.

Chk2 = Chk2 (Homo sapiens, UniProt O96017); test: In vitro kinase assay, Chk2; assay type: biochemical; settings: full length Chk2
Chain of Chk2 (O96017 whole entry): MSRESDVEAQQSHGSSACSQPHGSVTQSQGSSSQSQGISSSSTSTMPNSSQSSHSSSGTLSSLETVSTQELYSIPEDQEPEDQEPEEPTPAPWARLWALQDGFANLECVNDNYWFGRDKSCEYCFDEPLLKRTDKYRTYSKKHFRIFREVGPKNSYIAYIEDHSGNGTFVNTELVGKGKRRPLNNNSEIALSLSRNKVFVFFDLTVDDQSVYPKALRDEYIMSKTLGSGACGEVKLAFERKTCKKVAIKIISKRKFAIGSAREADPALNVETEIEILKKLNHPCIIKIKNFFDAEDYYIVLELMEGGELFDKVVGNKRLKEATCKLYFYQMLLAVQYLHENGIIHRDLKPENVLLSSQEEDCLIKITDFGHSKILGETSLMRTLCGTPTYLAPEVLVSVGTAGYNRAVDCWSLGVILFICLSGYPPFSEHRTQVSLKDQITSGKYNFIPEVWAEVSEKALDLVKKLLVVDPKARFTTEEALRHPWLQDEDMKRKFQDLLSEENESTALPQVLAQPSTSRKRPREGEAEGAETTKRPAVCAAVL
Description: Kinase assays were performed as previously described.

[1] = SW620, 100 mg/kg irinotecan followed by 30 mg/kg V158411
[2] = SW620, 100 mg/kg irinotecan followed by 60 mg/kg V158411

Compound: CN(C)CC(C)(C)COc1ccc2[nH]c(-c3cc(NC(=O)c4cnn(Cc5ccccc5)c4)c[nH]c3=O)cc2c1 [V158411]
- Percent inhibition at 50 nM (Chk1; 0.05 µM): 99-100%
- inhibition at 0.05 µM (Chk1; read-out: Percent inhibition at 50 nM): 100%
- %TGD (SW620 xenograft; [1]): 117%
- T-C (SW620 xenograft; [1]): 15.5
- Median TTE (SW620 xenograft; SW620, 100 mg/kg irinotecan followed by 30 mg/kg V158411 2 hours later): 28.8 days
- %TGD (SW620 xenograft; [2]): 154%
- T-C (SW620 xenograft; [2]): 21.3
- Median TTE (SW620 xenograft; SW620, 100 mg/kg irinotecan followed by 60 mg/kg V158411 2 hours later): 35.1 days
- single agent anti-tumor activity (SW620 xenograft; SW620, V158411 monotherapy): did not inhibit tumor growth; also recorded: no single agent activity
- mean body weight nadir (SW620 xenograft; SW620, irinotecan plus 60 mg/kg V158411, day 5): −13.3%
- IC50 (Chk2): 4.5 nM
